Measurements reported in patent EP1683799A1, “3-Amino-6-aryl(or 6-heteroaryl)-4-R²-thieno[2,3-b]pyridin-2-carboxylic acid amides, pharmaceutical compositions comprising the said and their use as inhibitors of TNFalpha release” (IBFB Pharma GmbH, priority 2005, dated 2006).
pEC50: −log10 of the molar value.

test system: TNFα-Freisetzung; experiment: Inhibition of TNFα release after LPS stimulation of human whole blood (ELISA); format: cell-based; conditions: human whole blood diluted 1:5 with RPMI 1640; LPS (Salmonella abortus equi) 1 µg/ml; 24 h at 37°C; TNFα in supernatant by ELISA; read-out: EC50 Hemmung der TNFα-Freisetzung
Text: Methodenbeschreibung der Hemmung der TNFα Freisetzung nach LPS Stimulation von humanem Vollblut
Die Stimulierung isolierter Leukozyten für die Freisetzung von Zytokinen kann auf verschiedenen Wegen erfolgen. Lipopolysaccharide (LPS) stellen einen Stimulus für die Untersuchung der Freisetzung von TNFα dar. LPS ist Bestandteil bakterieller Zellwände und wird beim Abtöten der Bakterien (durch Antibiotika oder das natürliche Immunsystem) freigesetzt. LPS stimuliert insbesondere die Aktivität phagozytierender Leukozyten (Gewebsmakrophagen, Granulozyten, Monozyten) und verursacht die Infiltration von Leukozyten vom peripheren Blut in das betroffene Gewebe. Ein Zytokin von besonderer Bedeutung für diese Mechanismen ist TNFα, das in großen Mengen durch die betroffenen Zellen sezemiert wird. Hauptquelle dabei sind Monozyten und Makrophagen. TNFα initiiert und prolongiert den Entzündungsprozess im Zusammenspiel mit anderen Mediatoren.
Für die Untersuchung des Effektes auf die LPS-induzierte TNFα-Freisetzung wurde eine Methode verwendet, die von MARX et al. (Marx D, Tassabehji M, Heer S, Hüttenbrink KB, Szelenyi I (2002) Pulmonary Pharmacology & Therapeutics 15 7-15) beschrieben wurde. Die Methodenbeschreibung in verkürzter Darstellung: Humanes Blut verschiedener Spendern wird durch Zusatz von 10 mM Na-Citrat ungerinnbar gemacht und 1:5 mit RPMI 1640 Zellkulturmedium verdünnt. Die Verbindungen der allgemeinen Formel 1 sowie die Kontrollsubstanzen (z.B. Dexamethason) wurden den Blutproben in verschiedenen Konzentrationen hinzugefügt. 15 Minuten später wurden die Leukozyten durch Zusatz von Lipopolysacchariden (LPS) (aus Salmonella abortus equi) in einer Endkonzentration von 1 µg/ml stimuliert. Nach Inkubation der Testansätze für 24 Stunden bei 37°C. und unter 5% CO2 in wassergesättigter Luft, wurde das Blut zentrifugiert und die Konzentration an TNFα im zellfreien Überstand unter Verwendung eines käuflichen ELISA (BD Biosciences) nach Angaben des Herstellers exakt vermessen.

Row | pEC50 | SMILES
1 | > 9.00 | NC(=O)c1sc2nc(-c3ccc4c(c3)OCCO4)cc(C(F)(F)F)c2c1N [3-Amino-6-(3,4-dioxoethylen-phenyl)-4-trifluormethyl-thieno[2,3-b]pyridin-2-carbonsäureamid]
2 | > 9.00 | CSc1ccc(-c2cc(C(F)(F)F)c3c(N)c(C(N)=O)sc3n2)cc1 [3-Amino-6-(4-methylthio-phenyl)-4-trifluormethyl-thieno[2,3-b]pyridin-2-carbonsäureamid]
3 | > 9.00 | Cc1ccc(-c2cc(C(F)F)c3c(N)c(C(N)=O)sc3n2)cc1 [Beispiel 1, 3-Amino-4-difluormethyl-6-(4-methyl-phenyl)thieno[2,3-b]pyridin-2-carbonsäureamid]
4 | > 9.00 | NC(=O)c1sc2nc(-c3cccs3)cc(C(F)(F)F)c2c1N [Beispiel 2, 3-Amino-6-(2-thienyl)-4-trifluormethyl-thieno[2,3-b]pyridin-2-carbonsäureamid]
5 | > 9.00 | NC(=O)c1sc2nc(-c3ccc4ccccc4c3)cc(C(F)(F)F)c2c1N [Beispiel 5, 3-Amino-6-(2-naphthyl)-4-trifluormethyl-thieno[2,3-b]pyridin-2-carbonsäureamid]
6 | > 9.00 | NC(=O)c1sc2nc(-c3ccccc3)cc(C(F)(F)F)c2c1N [Beispiel 6, 3-Amino-6-phenyl-4-trifluormethyl-thieno[2,3-b]pyridin-2-carbonsäureamid]
7 | > 9.00 | Cc1ccc(-c2cc(C(F)(F)F)c3c(N)c(C(N)=O)sc3n2)cc1 [Beispiel 7, 3-Amino-6-(4-methyl-phenyl)-4-trifluormethyl-thieno[2,3-b]pyridin-2-carbonsäureamid]
8 | > 9.00 | CCc1ccc(-c2cc(C(F)(F)F)c3c(N)c(C(N)=O)sc3n2)cc1 [Beispiel 8, 3-Amino-6-(4-ethyl-phenyl)-4-trifluormethyl-thieno[2,3-b]pyridin-2-carbonsäureamid]
9 | > 9.00 | CCCc1ccc(-c2cc(C(F)(F)F)c3c(N)c(C(N)=O)sc3n2)cc1 [Beispiel 9, 3-Amino-6-(4-propyl-phenyl)-4-trifluormethyl-thieno[2,3-b]pyridin-2-carbonsäureamid]
10 | > 9.00 | CC(C)c1ccc(-c2cc(C(F)(F)F)c3c(N)c(C(N)=O)sc3n2)cc1 [Beispiel 10, 3-Amino-6-(4-isopropyl-phenyl)-4-trifluormethyl-thieno[2,3-b]pyridin-2-carbonsäureamid]
11 | > 9.00 | COc1ccc(-c2cc(C(F)(F)F)c3c(N)c(C(N)=O)sc3n2)cc1 [Beispiel 12, 3-Amino-6-(4-methoxy-phenyl)-4-trifluormethyl-thieno[2,3-b]pyridin-2-carbonsäureamid]
12 | > 9.00 | CCOc1ccc(-c2cc(C(F)(F)F)c3c(N)c(C(N)=O)sc3n2)cc1 [Beispiel 13, 3-Amino-6-(4-ethoxy-phenyl)-4-trifluormethyl-thieno[2,3-b]pyridin-2-carbonsäureamid]
13 | > 9.00 | NC(=O)c1sc2nc(-c3ccc(Cl)cc3)cc(C(F)(F)F)c2c1N [Beispiel 14, 3-Amino-6-(4-chlor-phenyl)-4-trifluormethyl-thieno[2,3-b]pyridin-2-carbonsäureamid]
14 | > 9.00 | NC(=O)c1sc2nc(-c3ccc(Br)cc3)cc(C(F)(F)F)c2c1N [Beispiel 15, 3-Amino-6-(4-brom-phenyl)-4-trifluormethyl-thieno[2,3-b]pyridin-2-carbonsäureamid]
15 | > 9.00 | Cc1ccc(-c2cc(C(F)(F)F)c3c(N)c(C(N)=O)sc3n2)cc1C [Beispiel 16, 3-Amino-6-(3,4-dimethyl-phenyl)-4-trifluormethyl-thieno[2,3-b]pyridin-2-carbonsäureamid]
16 | > 9.00 | NC(=O)c1sc2nc(-c3ccc4c(c3)OCO4)cc(C(F)(F)F)c2c1N [Beispiel 18, 3-Amino-6-(3,4-dioxomethylen-phenyl)-4-trifluormethyl-thieno[2,3-b]pyridin-2-carbonsäureamid]
17 | > 9.00 | NC(=O)c1sc2nc(-c3ccc(F)cc3)cc(C(F)(F)F)c2c1N [Beispiel 22, 3-Amino-6-(4-fluor-phenyl)-4-trifluormethyl-thieno[2,3-b]pyridin-2-carbonsäureamid]
